According to patent US11078462B2, “Perivascular stromal cells from primate pluripotent stem cells” (ReCyte Therapeutics, Inc., priority 2014, dated 2021):
Where a name gives a salt, the structure may show the parent alone.

Test system: HUVEC+017-PC-M co-cultures
Experiment: Kit co-culture assay to study angiogenesis in vitro (tube formation on MATRIGEL)
Format: cell-based, human
Method: A kit has been developed to provide a unique, robust co-culture assay to study angiogenesis in vitro. In this model system, we utilize a unique perivascular stromal cell line (017-PC-M) that when co-cultured with human umbilical vein endothelial cells (HUVEC) results in the rapid formation of large angiogenic networks with long-term stability of 4-6 days without the need for additional growth factors and complex media supplements.
VASCULIFE® assay media: VASCULIFE® basal media plus 10 mM L-glutamine (final concentration)
Assay Protocol: • 1. Four days (Day −4) prior to assay, HUVECs should be thawed and seeded at 3.5×10^4 cells per cm^2 into a 150 cm^2 tissue culture flask containing VASCULIFE® growth media. Incubate cells at 37° C. and 5% CO2. Exchange full volume of media every 1-2 days. • 2. Two days (Day −2) prior to assay, PC-M cells should be thawed and seeded at 10×10^4 cells per cm^2 into a 150 cm^2 tissue culture flask containing VASCULIFE® growth media. Incubate cells at 37° C. and 5% CO2. Exchange full volume of media every 1-2 days. • 3. At Day 0, prepare 96-well plate with MATRIGEL® coating of 50 μL per well. Let plate warm for at least 1 hour prior to seeding cells. • 4. Prepare assay solution: dilute L-glutamine into VASCULIFE® medium. • 5. On Day 0, harvest both HUVECs and PC-M cells. Recommended: Use 5-7.5 mL ACCUTASE® treatment for 3-5 minutes to detach cells, then quench Accutase® with an equivolume of Vasculife® growth media before pelleting cells. • 6. Prepare VASCULIFE® assay media (500 μL per each triplicate condition). • 7. Pellet cells at 250-350 rpm for 5 minutes at room temperature. • 8. Decant media and re-suspend into 1 mL of VASCULIFE® assay media. • 9. Measure cell concentration and viability:
• 10. Mix cells at a ratio of 3:1 HUVECs: 017-PC-M cells and seed at a final density of 37,500 cells per well. For one set of triplicates, mix approximately 85,000 HUVECs with 28,000 017-PC-M cells. • 11. Allow co-culture to adhere at 37° C. for 3-4 hours. • 12. […]

VEGF was tested, and the “formation of tubes after addition of VEGF to the assay media” value (VEGF concentrations ≤2.5 ng/mL or ≥10 ng/mL, monocultures and/or co-cultures) was “may inhibit formation of tubes”.
“basic FGF: basic fibroblast growth factor added to the assay media” was tested, and the “tube formation after addition of basic FGF to the assay media” value (concentrations ≥10 ng/mL, monocultures of HUVECs, of 017-PC-M cells and/or co-cultures) was “little to no tube formation”.
`Cc1ccc(C(=O)Nc2ccc(S(=O)(=O)O)c3cc(S(=O)(=O)O)cc(S(=O)(=O)O)c23)cc1NC(=O)c1cccc(NC(=O)Nc2cccc(C(=O)Nc3cc(C(=O)Nc4ccc(S(=O)(=O)O)c5cc(S(=O)(=O)O)cc(S(=O)(=O)O)c45)ccc3C)c2)c1` [Suramin, suramin hexasodium salt] showed a reduce tube formation (Addition of 50 μM Suramin) of over 90%.
